Laboratory results published in patent publication US20170037008A1, “PHENYL BENZYL ETHER DERIVATIVE AND PREPARATION METHOD AND APPLICATION THEREOF” (BEIJING ZHIBO BIO-MEDICAL TECHNOLOGY CO., LTD, priority 2013, published 2017).
Values belong to the compound of their own block, whether it stands above or below them.

How the values were obtained:
[1] = target: T1, Aβ1-42 aggregates (Homo sapiens, UniProt P05067); assay: In-vitro competitive binding experiments (Ki determination) with Aβ1-42 aggregates; conditions: for affinity with the Aβ1-42 aggregates compared with IMPY and PIB: competitive binding experiments
T1 construct: Preparing receptor Aβ1-42 proteins according to the existing method
Experimental: Binding reaction occurs between Aβ1-42 aggregate proteins with certain concentration and radioactive ligands [^125I] […] 4, the compounds are separated after balancing, and the inhibition constant (Ki) is calculated by determining radioactivity.
(1) Preparing 4 l of PBS (0.2M) buffer solution with pH=7.4;
(2) Preparing radioligand [^125]
(3) Preparing the compounds to be determined into 10^−3 to 10^−9 mol/L continuously diluted ethanol solution;
(4) Preparing receptor Aβ1-42 proteins according to the existing method and diluting the proteins into 30 nM water solution;
(5) Soaking a glass fiber filter membrane in PBS solution containing 0.1% (volume fraction) polyethyleneimine for 0.5 h;
(6) Respectively adding 100 μl of solution of compounds with different concentration and to be determined, 100 μl of [^125I]
(7) Oscillating and incubating for 2 h in 37° C. constant-temperature water bath;
(8) Collecting reaction liquid by using a multi-head cell collector, and washing the reaction liquid for three times by using PBS, 3 ml per time;
(9) Measuring and counting by using a γ counter; and […]

[2] = logD of labeled ligands; type: physicochemical
[3] = Biological distribution in bodies of normal mice; type: in vivo, mice (ICR); conditions: caudal vein injection
From the text: Through in-vivo distribution experiments, pharmacokinetic features, especially initial bran intake and brain removal situations of ^18F or ^125I labeled compounds in the bodies of mice are studied. […] Data are expressed in radioactive percentage dosage per organ (% ID/organ) and radioactive percentage dosage per gram of organ (% ID/g).

T1 sequence (P05067 672-713 limits assumed): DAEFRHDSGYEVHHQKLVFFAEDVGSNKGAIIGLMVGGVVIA

SMILES: COc1ccc(COc2ccc(OCCF)cc2)cc1 [Compound 53a, 1-(2-fluoroethoxy)-4-(4 methoxybenzyloxy) benzene]
Ki [1]: 465 ± 18.8 nM

SMILES: CNc1ccc(OCc2ccc(OCCF)cc2)cc1 [Compound 46, 4-(4-(2-fluoroethoxy)benzyloxy)-N-methylaniline]
Ki [1]: 460 ± 82 nM

SMILES: COc1ccc(OCc2ccc(OCCF)cc2)cc1 [Compound 44a, 1-(2-fluoroethoxy)-4-((4-methoxyphenoxy)methyl) benzene]
Ki [1]: 167 ± 34.5 nM

SMILES: CN(C)c1ccc(CNc2ccc(I)cc2)cc1 [Compound 67, 4-(((4-iodophenyl)amino)methyl)-N,N-dimethylaniline]
Ki [1]: 124 ± 14.3 nM

SMILES: COc1ccc(OCc2ccc(OCC[18F])cc2)cc1 [[^18F]44a]
logD [2]: [^18F]44a (logD = 3.05 ± 0.08)
Blood ([3]; 2 min): 3.90 ± 0.25 % ID/g
Bone ([3]; 2 min): 1.50 ± 0.44 % ID/organ
Brain ([3]; 2 min): 7.54 ± 0.39 % ID/g
Blood ([3]; 10 min): 3.86 ± 0.24 % ID/g
Bone ([3]; 10 min): 1.04 ± 0.25 % ID/organ
Brain ([3]; 10 min): 3.32 ± 0.38 % ID/g
Blood ([3]; 30 min): 4.28 ± 0.23 % ID/g
Bone ([3]; 30 min): 1.43 ± 0.44 % ID/organ
Brain ([3]; 30 min): 2.77 ± 0.22 % ID/g
Blood ([3]; 60 min): 3.86 ± 0.39 % ID/g
Bone ([3]; 60 min): 4.05 ± 0.62 % ID/organ
Brain ([3]; 60 min): 2.33 ± 0.30 % ID/g

SMILES: COc1ccc(COc2ccc([125I])cc2)cc1 [[^125I]24]
logD [2]: [^125I]24 (logD = 4.16 ± 0.29)
Blood ([3]; 2 min): 5.13 ± 0.62 % ID/g
Brain ([3]; 2 min): 4.29 ± 1.06 % ID/g
Blood ([3]; 10 min): 4.26 ± 0.38 % ID/g
Brain ([3]; 10 min): 2.11 ± 0.38 % ID/g
Thyroid ([3]; 10 min): 0.07 ± 0.03 % ID/organ
Blood ([3]; 30 min): 3.31 ± 0.79 % ID/g
Brain ([3]; 30 min): 0.73 ± 0.17 % ID/g
Thyroid ([3]; 30 min): 0.17 ± 0.03 % ID/organ
Blood ([3]; 60 min): 2.60 ± 1.33 % ID/g
Brain ([3]; 60 min): 0.32 ± 0.09 % ID/g
Thyroid ([3]; 60 min): 0.19 ± 0.05 % ID/organ

SMILES: CNc1ccccc1OCc1ccc(I)cc1 [Compound 21, 2-(4-iodobenzyloxy)-N-methylaniline]
Ki [1]: > 20000 nM

SMILES: COc1ccccc1OCc1ccc(I)cc1 [Compound 6, 1-(4-iodobenzyloxy)-2-methoxybenzene]
Ki [1]: 6110 ± 458 nM

The next lines start with results.

Ki [1]: 25.9 ± 2.4 nM
SMILES: Ic1ccc(COc2ccc(I)cc2)cc1 [Compound 13, 1-iodo-4-(4-iodobenzyloxy) benzene]
affinity with the Aβ1-42 aggregates compared with IMPY and PIB [1]: higher than that of the known compounds IMPY and PIB

Ki [1]: 93.9 ± 6.1 nM
SMILES: Ic1ccc(COc2ccccc2)cc1 [Compound 14, 1-iodo-4-(phenoxymethyl) benzene]

Ki [1]: 456 ± 135 nM
SMILES: Oc1cccc(OCc2ccc(I)cc2)c1 [Compound 8, 3-(4-iodobenzyloxy) phenol]

Ki [1]: 3350 ± 611 nM
SMILES: Oc1ccccc1OCc1ccc(I)cc1 [Compound 9, 2-(4-iodobenzyloxy) phenol]

Ki [1]: 484 ± 53.2 nM
SMILES: Nc1ccc(OCc2ccc(I)cc2)cc1 [Compound 16, 4-(4-iodobenzyloxy) aniline]

Ki [1]: 57 ± 5.1 nM
SMILES: CNc1ccc(OCc2ccc(I)cc2)cc1 [Compound 19, 4-(4-iodobenzyloxy)-N-methylaniline]

Ki [1]: 134 ± 28.1 nM
SMILES: Oc1ccc(OCc2ccc(I)cc2)cc1 [Compound 7, 4-(4-iodobenzyloxy) phenol]

Ki [1]: 154 ± 5.6 nM
SMILES: COc1cccc(OCc2ccc(I)cc2)c1 [Compound 5, 1-(4-iodobenzyloxy)-3-methoxybenzene]

Ki [1]: 58.5 ± 3.5 nM
SMILES: COc1ccc(COc2ccc(I)cc2)cc1 [Compound 24, 1-iodo-4-(4-methoxybenzyloxy) benzene]

Ki [1]: 23 ± 3.3 nM
SMILES: FCCOc1ccc(COc2ccc(I)cc2)cc1 [Compound 35a, 1-(2-fluoroethoxy)-4-((4-iodophenoxy)methyl) benzene]
affinity with the Aβ1-42 aggregates compared with IMPY and PIB [1]: higher than that of the known compounds IMPY and PIB

Ki [1]: 1220 ± 58 nM
SMILES: Nc1ccccc1OCc1ccc(I)cc1 [Compound 18, 2-(4-iodobenzyloxy) aniline]
